Measurements taken from PMC4928820 (Molecular Pharmaceutics, 2015).

Assays:
[1] = water-saturated tricaprylin compared to dry tricaprylin ref 34; cited from earlier work
[2] = assay type: physicochemical; settings: 37 °C, mean ± SD, triplicate; for Thermodynamic solubility in Carbitol: cosolvent; for Thermodynamic solubility in Maisine 35-1: long-chain mono-; for Thermodynamic solubility in Maisine 35-1 / Thermodynamic solubility in Capmul MCM EP: di-, triglyceride; for Thermodynamic solubility in Capmul MCM EP: medium-chain mono-; for Thermodynamic solubility in Cremophor EL: surfactant (≤3% w/w water)

Row | Thermodynamic solubility in Carbitol [2] [mg/g] | Thermodynamic solubility in Maisine 35-1 [2] [mg/g] | Thermodynamic solubility in Capmul MCM EP [2] [mg/g] | Thermodynamic solubility in Cremophor EL [2] [mg/g] | SMILES | Increase of solubility [1]
1 | – | – | – | – | CNC(=O)c1ccccc1 [N-methylbenzamide] | more than 50%
2 | 3.52 ± 0.20 | 0.62 ± 0.06 | 1.54 ± 0.10 | 2.85 ± 0.14 | COc1cc(C)c(/C=C/C(C)=C/C=C/C(C)=C/C(=O)O)c(C)c1C [acitretin] | –
3 | 5.99 ± 0.19 | 3.86 ± 0.21 | 3.17 ± 0.10 | 2.75 ± 0.14 | CCCSc1ccc2nc(NC(=O)OC)[nH]c2c1 [albendazole] | –
4 | 43.0 ± 1.83 | 1.55 ± 0.05 | 6.36 ± 0.26 | 37.9 ± 5.23 | CC(C)(Oc1ccc(CCNC(=O)c2ccc(Cl)cc2)cc1)C(=O)O [bezafibrate] | –
5 | 77.0 ± 2.04 | 1.99 ± 0.19 | 9.07 ± 0.38 | 26.4 ± 1.46 | CCOc1nc2cccc(C(=O)OC(C)OC(=O)OC3CCCCC3)c2n1Cc1ccc(-c2ccccc2-c2nnn[nH]2)cc1 (stereo not drawn) [candesartan cilexetil] | –
6 | 20.5 ± 1.26 | ≤0.41 | 3.19 ± 0.14 | 11.3 ± 0.67 | CCOc1nc2cccc(C(=O)O)c2n1Cc1ccc(-c2ccccc2-c2nnn[nH]2)cc1 [candesartan] | –
7 | 82.9 ± 1.80 | 30.0 ± 1.66 | 55.5 ± 3.23 | 34.5 ± 1.06 | NC(=O)N1c2ccccc2C=Cc2ccccc21 [carbamazepine] | –
8 | 22.8 ± 0.54 | 11.7 ± 0.24 | 16.3 ± 0.44 | 15.9 ± 0.83 | CC(C)/N=c1\cc2n(-c3ccc(Cl)cc3)c3ccccc3nc-2cc1Nc1ccc(Cl)cc1 [clofazimine] | –
9 | 135.0 ± 3.57 | 75.4 ± 8.95 | 136.7 ± 5.94 | 44.1 ± 3.01 | Clc1ccccc1C(c1ccccc1)(c1ccccc1)n1ccnc1 [clotrimazole] | –
10 | 286.3 ± 13.4 | 31.6 ± 0.99 | 53.4 ± 1.29 | 157.9 ± 6.54 | O=C(O)c1cc(-c2ccc(F)cc2F)ccc1O [diflunisal] | –
11 | 43.1 ± 2.40 | 3.02 ± 0.16 | 12.3 ± 0.36 | 9.57 ± 0.29 | OCCN(CCO)c1nc(N2CCCCC2)c2nc(N(CCO)CCO)nc(N3CCCCC3)c2n1 [dipyridamole] | –
12 | 162.6 ± 8.46 | 49.0 ± 3.05 | 47.2 ± 2.05 | 88.8 ± 3.66 | CCN(CC)C(=S)SSC(=S)N(CC)CC [disulfiram] | –
13 | 247.1 ± 8.93 | 22.1 ± 1.83 | 56.3 ± 1.76 | 163.9 ± 10.1 | C#C[C@]1(O)CC[C@H]2[C@@H]3CCc4cc(O)ccc4[C@H]3CC[C@@]21C [ethinylestradiol] | –
14 | 217.2 ± 16.0 | 37.7 ± 1.37 | 80.2 ± 2.22 | 125.1 ± 6.23 | CCOC(=O)C1=C(C)NC(C)=C(C(=O)OC)C1c1cccc(Cl)c1Cl (stereo not drawn) [felodipine] | –
15 | 4.13 ± 0.28 | 0.69 ± 0.11 | 1.28 ± 0.09 | 2.07 ± 0.09 | COC(=O)Nc1nc2ccc(Sc3ccccc3)cc2[nH]1 [fenbendazole] | –
16 | 92.8 ± 4.81 | 7.38 ± 0.22 | 14.5 ± 0.50 | 58.4 ± 2.59 | CC(C)(Oc1ccc(C(=O)c2ccc(Cl)cc2)cc1)C(=O)O [fenofibric acid] | –

Row | Thermodynamic solubility in Carbitol [2] [mg/g] | Thermodynamic solubility in Maisine 35-1 [2] [mg/g] | Thermodynamic solubility in Capmul MCM EP [2] [mg/g] | Thermodynamic solubility in Cremophor EL [2] [mg/g] | SMILES | Increase of solubility [1]
17 | 21.1 ± 0.46 | 0.52 ± 0.14 | 5.49 ± 0.26 | 11.2 ± 1.01 | COc1ccc(Cl)cc1C(=O)NCCc1ccc(S(=O)(=O)NC(=O)NC2CCCCC2)cc1 [glibenclamide] | –
18 | 18.9 ± 0.99 | 2.43 ± 0.05 | 5.56 ± 0.21 | 9.70 ± 0.36 | COC1=CC(=O)C[C@@H](C)[C@]12Oc1c(Cl)c(OC)cc(OC)c1C2=O [griseofulvin] | –
19 | 79.3 ± 7.90 | 71.2 ± 4.58 | 52.6 ± 3.01 | 27.9 ± 0.79 | CCCCN(CCCC)CCC(O)c1cc2c(Cl)cc(Cl)cc2c2cc(C(F)(F)F)ccc12 (stereo not drawn) [halofantrine] | –
20 | 27.2 ± 1.82 | 3.57 ± 0.16 | 13.4 ± 0.51 | 11.3 ± 0.82 | O=C(CCCN1CCC(O)(c2ccc(Cl)cc2)CC1)c1ccc(F)cc1 [haloperidol] | –
21 | 187.4 ± 7.08 | 13.0 ± 0.88 | 28.6 ± 1.30 | 71.6 ± 4.57 | COc1ccc2c(c1)c(CC(=O)O)c(C)n2C(=O)c1ccc(Cl)cc1 [indomethacin] | –
22 | 6.30 ± 0.55 | 2.26 ± 0.16 | 5.60 ± 0.67 | 1.92 ± 0.29 | CCC(C)n1ncn(-c2ccc(N3CCN(c4ccc(OCC5COC(Cn6cncn6)(c6ccc(Cl)cc6Cl)O5)cc4)CC3)cc2)c1=O (stereo not drawn) [itraconazole] | –
23 | 43.6 ± 1.52 | 5.38 ± 0.40 | 9.63 ± 0.40 | 30.7 ± 0.89 | Cc1cccc(Nc2ccccc2C(=O)O)c1C [mefenamic acid] | –
24 | 49.6 ± 2.62 | 3.97 ± 0.19 | 10.1 ± 0.40 | 44.1 ± 1.75 | O=C(Nc1ccc([N+](=O)[O-])cc1Cl)c1cc(Cl)ccc1O [niclosamide] | –
25 | 25.6 ± 1.00 | 5.36 ± 0.61 | 7.23 ± 0.20 | 12.3 ± 0.25 | COc1ccc2c(c1OC)C(=O)O[C@@H]2[C@H]1c2c(cc3c(c2OC)OCO3)CCN1C [noscapine] | –
26 | 116.9 ± 14.8 | 85.9 ± 5.32 | 184.9 ± 12.4 | 45.4 ± 3.51 | O=C(C1CCCCC1)N1CC(=O)N2CCc3ccccc3C2C1 (stereo not drawn) [praziquantel] | –
27 | 67.02 ± 1.36 | 66.2 ± 4.87 | 99.1 ± 2.94 | 41.1 ± 1.27 | CC(=O)[C@H]1CC[C@H]2[C@@H]3CCC4=CC(=O)CC[C@]4(C)[C@H]3CC[C@]12C [progesterone] | –
28 | ≥317 | ≥123 | ≥288 | – | CC(C)(C)NC(=O)[C@@H]1C[C@@H]2CCCC[C@@H]2CN1C[C@@H](O)[C@H](Cc1ccccc1)NC(=O)[C@H](CC(N)=O)NC(=O)c1ccc2ccccc2n1 [saquinavir] | –
29 | 16.4 ± 0.72 | 0.16 ± 0.02 | 3.16 ± 0.06 | 13.1 ± 1.02 | O=C(O)c1cc(/N=N/c2ccc(S(=O)(=O)Nc3ccccn3)cc2)ccc1O [sulfasalazine] | –
30 | 85.5 ± 4.29 | 14.1 ± 1.18 | 26.0 ± 1.45 | 70.6 ± 3.87 | Cc1c(Cl)cccc1Nc1ccccc1C(=O)O [tolfenamic acid] | –
31 | 50.2 ± 2.47 | 7.90 ± 1.03 | 11.8 ± 0.59 | 19.7 ± 3.11 | Cc1cc(-n2c(=O)[nH]c(=O)n(C)c2=O)ccc1Oc1ccc(SC(F)(F)F)cc1 [toltrazuril] | –
